# Reference: ChEMBL document CHEMBL1201862, “PubChem BioAssay data set” (2004)
# Calls of active or inactive are those of the source.
# Assays:
# Estrogen receptor = target: T1, Estrogen receptor (Homo sapiens, UniProt P03372);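 note: potency for inhibiting coactivator peptide recruitment to the receptor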
# T1 sequence (P03372 whole entry): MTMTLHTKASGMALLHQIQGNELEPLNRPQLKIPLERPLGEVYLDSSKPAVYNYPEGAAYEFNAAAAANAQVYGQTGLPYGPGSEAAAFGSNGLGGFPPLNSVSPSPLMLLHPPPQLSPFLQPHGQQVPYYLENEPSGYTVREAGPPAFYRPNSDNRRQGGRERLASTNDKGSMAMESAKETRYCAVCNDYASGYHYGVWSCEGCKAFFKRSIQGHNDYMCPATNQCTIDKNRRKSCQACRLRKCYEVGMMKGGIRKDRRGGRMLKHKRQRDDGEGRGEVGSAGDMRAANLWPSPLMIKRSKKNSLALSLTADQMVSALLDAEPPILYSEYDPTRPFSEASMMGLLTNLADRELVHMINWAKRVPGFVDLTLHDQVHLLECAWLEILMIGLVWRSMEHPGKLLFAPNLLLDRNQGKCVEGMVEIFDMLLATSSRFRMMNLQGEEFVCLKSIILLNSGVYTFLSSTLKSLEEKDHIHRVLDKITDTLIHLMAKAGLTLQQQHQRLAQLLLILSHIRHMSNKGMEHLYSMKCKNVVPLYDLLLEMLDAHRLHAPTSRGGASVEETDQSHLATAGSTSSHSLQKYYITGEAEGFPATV
# [1] = microbe, parasite or virus in culture; type: functional; details: Mycobacterium tuberculosis
# [2] = blockers of HIV-1 ZM109 envelope-driven cell-cell fusion – HeLa effector, CEM target cells, luciferase, cherry-pick, dose response (AID 652058); type: functional, cell-based;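 note: luciferase signal from HIV-1 Env mediated cell-cell fusion of effector and target cells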
# Cytochrome P450 1A2 = target: T2, Cytochrome P450 1A2 (Homo sapiens, UniProt P05177);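 note: PubChem cytochrome P450 panel assay, CYP1A2 panel member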
# T2 sequence (P05177 whole entry): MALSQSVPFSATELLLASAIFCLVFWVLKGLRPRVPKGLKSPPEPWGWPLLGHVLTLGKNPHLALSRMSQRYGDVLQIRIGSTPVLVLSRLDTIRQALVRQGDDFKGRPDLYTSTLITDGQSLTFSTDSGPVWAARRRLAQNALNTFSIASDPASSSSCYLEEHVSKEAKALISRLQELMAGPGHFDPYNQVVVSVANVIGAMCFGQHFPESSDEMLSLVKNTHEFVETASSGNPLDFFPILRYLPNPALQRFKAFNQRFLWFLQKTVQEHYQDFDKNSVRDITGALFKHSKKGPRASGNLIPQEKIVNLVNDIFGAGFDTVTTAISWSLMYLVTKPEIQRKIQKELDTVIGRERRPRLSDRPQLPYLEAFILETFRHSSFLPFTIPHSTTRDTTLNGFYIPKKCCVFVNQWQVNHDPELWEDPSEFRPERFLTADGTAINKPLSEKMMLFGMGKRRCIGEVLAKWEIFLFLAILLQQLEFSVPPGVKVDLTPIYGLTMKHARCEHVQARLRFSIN
# [3] = HIV-1 AD8 envelope cell-cell fusion blockers – cherry-pick, dose response (AID 652062); type: functional, cell-based;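 note: luciferase signal from cell-cell fusion driven by HIV-1 clade B AD8 Env; potency is for inhibitors of fusion seen as a drop in luminescence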
# [4] = blockers of HIV-1 envelope-mediated cell-cell fusion – cherry-pick, dose response (AID 652057); type: functional, cell-based
# [5] = off-target signal loss in HeLa-CEM21 co-culture – HeLa F-luc CTL cells, cherry-picked, counter-screen for HIV-1 Env fusion inhibitor project, dose response (AID 652040); type: functional, cell-based;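 note: potency for signal decrease marking cytotoxic or nonspecific inhibition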
# [6] = target: T3, Calpain-2 catalytic subunit (Sus scrofa, UniProt P43367); test: m-calpain protease blockers, concentration series – biochemical, fluorogenic peptide substrate, dose response (AID 1420); type: functional
# T3 sequence (P43367 whole entry): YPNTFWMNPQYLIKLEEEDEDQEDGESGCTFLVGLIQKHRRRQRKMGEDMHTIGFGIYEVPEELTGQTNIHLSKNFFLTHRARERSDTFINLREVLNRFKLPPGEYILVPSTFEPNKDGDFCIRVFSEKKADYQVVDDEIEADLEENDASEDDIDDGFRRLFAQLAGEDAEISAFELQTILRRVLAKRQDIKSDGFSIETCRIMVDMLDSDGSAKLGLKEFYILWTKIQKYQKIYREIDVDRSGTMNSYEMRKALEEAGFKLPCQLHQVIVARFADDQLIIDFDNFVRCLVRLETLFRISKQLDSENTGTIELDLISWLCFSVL
# [7] = target: T4, Ubiquitin-conjugating enzyme E2 N (Homo sapiens, UniProt P61088); type: functional;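 note: Dose-response confirmation in a TR-FRET assay detecting UBC13-driven polyubiquitin chain formation, inhibition measured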
# T4 sequence (P61088 whole entry): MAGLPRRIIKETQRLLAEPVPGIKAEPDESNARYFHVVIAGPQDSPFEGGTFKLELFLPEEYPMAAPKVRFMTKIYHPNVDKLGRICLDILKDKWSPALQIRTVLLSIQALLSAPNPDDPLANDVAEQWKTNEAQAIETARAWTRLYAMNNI
# Prothrombin = Prothrombin (Homo sapiens, UniProt P00734); test: Thrombin 1536 HTS Dose Response Confirmation. [Related pubchem assays: 1046 (Thrombin 1536 HTS; hits were confirmed in this assay)]; type: functional
# [8] = NIH3T3 cell viability loss – ATP luminescence, mouse fibroblasts, counter-screen, dose response (AID 2010); type: functional, cell-based;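 note: cells exposed to compound for about 90 hours before reading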
# [9] = Trypanosoma cruzi growth suppression in host cells – NIH3T3 host cells, beta-gal luminescence, confirmation (AID 2044); type: functional, cell-based;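 note: intracellular parasites grown in NIH/3T3 mouse fibroblasts as host cells; luminescent beta-galactosidase reporter signal from transgenic T. cruzi replicating inside host cells; inhibitors lower the luminescence signal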
# [10] = viability of uninfected HEp-2 cells – cell-based, HTS, cytotoxicity control for RSV inhibitor project, dose response (AID 2410); type: functional; details: human respiratory syncytial virus
# [11] = test system: Streptococcus sp. 'group A'; test: Streptococcus pyogenes SK(-)GAS viability under kanamycin – luminescence, BacTiterGlo, confirmation, counter-screen for streptokinase expression inhibitor project, dose response (AID 1900); type: functional, organism-based
# INS1 = test: INS-1E survival protection against cytokine death – cell-based, luminescence, retest, dose response (AID 449756); type: functional; details: Rattus norvegicus;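 note: cell death triggered by IL-1 beta plus TNF-alpha plus IFN-gamma mixture; protective hits raise ATP signal compared with cytokine alone wells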
# Streptococcus = test: GAS UMAA2166 growth inhibition – luminescence, BacTiterGlo, counter-screen for streptokinase expression inhibitor project, dose response (AID 1915); type: functional, organism-based;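 note: potency for reduction of bacterial viability or growth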
# Cytochrome P450 2C9 = Cytochrome P450 2C9 (Homo sapiens, UniProt P11712)
# Chain of Cytochrome P450 2C9 (P11712 whole entry): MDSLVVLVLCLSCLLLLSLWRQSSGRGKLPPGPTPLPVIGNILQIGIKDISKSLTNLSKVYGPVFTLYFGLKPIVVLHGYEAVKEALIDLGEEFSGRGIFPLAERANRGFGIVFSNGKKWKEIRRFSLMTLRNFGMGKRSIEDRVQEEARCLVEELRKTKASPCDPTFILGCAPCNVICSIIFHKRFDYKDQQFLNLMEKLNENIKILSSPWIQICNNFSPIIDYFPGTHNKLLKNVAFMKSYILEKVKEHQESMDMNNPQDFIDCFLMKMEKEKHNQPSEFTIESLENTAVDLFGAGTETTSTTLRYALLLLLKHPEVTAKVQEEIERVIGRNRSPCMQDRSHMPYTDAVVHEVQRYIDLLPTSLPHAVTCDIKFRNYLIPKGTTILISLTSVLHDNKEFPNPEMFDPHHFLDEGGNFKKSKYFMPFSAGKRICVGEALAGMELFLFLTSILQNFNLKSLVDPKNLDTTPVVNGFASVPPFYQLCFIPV
# BJ [12] = test: BJ-TERT fibroblast viability loss – cell-based, RAS-independent, luminescence, dose response (AID 1933); type: functional; details: Homo sapiens
# BJ [13] = test: BJ-TERT-LT-ST fibroblast viability loss – cell-based, RAS-independent, luminescence, dose response (AID 1935); type: functional; details: Homo sapiens;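 note: BJ fibroblasts immortalized with TERT plus LT and ST oncogenes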
# [14] = DRD fibroblast viability loss – cell-based, non-viral oncogenic, luminescence, dose response (AID 1934); type: functional; details: Homo sapiens
# BJ [15] = test: cells; type: functional, cell-based; details: Homo sapiens
# Protein RecA = target: T5, Protein RecA (Mycobacterium tuberculosis, UniProt P9WHJ3); test: Fluorescence Cell-Free Homogeneous Dose Retest to Identify Inhibitors of RecA-Intein Splicing Activity. [Related pubchem assays (depositor defined):AID2097, AID2223, AID489010, AID492950]; type: functional
# T5 sequence (P9WHJ3 whole entry): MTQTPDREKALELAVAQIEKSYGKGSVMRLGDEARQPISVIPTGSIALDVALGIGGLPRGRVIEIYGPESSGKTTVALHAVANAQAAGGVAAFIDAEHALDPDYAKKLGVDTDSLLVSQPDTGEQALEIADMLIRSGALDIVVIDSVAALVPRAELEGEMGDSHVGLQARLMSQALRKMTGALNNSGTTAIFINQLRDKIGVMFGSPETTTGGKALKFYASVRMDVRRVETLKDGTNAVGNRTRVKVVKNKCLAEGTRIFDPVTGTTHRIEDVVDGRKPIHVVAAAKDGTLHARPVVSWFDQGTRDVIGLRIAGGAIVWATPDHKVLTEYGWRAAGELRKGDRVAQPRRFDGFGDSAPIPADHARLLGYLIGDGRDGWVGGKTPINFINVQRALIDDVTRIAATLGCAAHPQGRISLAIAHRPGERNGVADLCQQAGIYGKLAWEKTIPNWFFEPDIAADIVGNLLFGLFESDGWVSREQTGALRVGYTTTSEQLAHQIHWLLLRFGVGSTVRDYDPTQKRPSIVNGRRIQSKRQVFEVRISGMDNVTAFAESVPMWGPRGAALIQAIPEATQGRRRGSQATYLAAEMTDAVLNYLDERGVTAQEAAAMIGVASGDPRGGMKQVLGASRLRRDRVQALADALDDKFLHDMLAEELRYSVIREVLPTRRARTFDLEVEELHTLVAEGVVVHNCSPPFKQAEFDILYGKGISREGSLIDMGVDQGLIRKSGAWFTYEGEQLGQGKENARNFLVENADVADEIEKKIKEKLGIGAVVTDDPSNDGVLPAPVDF
# [16] = target: T6, Replicative DNA helicase DnaB (Mycobacterium tuberculosis, UniProt P9WMR3); test: DnaB intein splicing inhibitors, dose response, biochemical, cell-free fluorescence (AID 449749); type: functional
# T6 sequence (P9WMR3 whole entry): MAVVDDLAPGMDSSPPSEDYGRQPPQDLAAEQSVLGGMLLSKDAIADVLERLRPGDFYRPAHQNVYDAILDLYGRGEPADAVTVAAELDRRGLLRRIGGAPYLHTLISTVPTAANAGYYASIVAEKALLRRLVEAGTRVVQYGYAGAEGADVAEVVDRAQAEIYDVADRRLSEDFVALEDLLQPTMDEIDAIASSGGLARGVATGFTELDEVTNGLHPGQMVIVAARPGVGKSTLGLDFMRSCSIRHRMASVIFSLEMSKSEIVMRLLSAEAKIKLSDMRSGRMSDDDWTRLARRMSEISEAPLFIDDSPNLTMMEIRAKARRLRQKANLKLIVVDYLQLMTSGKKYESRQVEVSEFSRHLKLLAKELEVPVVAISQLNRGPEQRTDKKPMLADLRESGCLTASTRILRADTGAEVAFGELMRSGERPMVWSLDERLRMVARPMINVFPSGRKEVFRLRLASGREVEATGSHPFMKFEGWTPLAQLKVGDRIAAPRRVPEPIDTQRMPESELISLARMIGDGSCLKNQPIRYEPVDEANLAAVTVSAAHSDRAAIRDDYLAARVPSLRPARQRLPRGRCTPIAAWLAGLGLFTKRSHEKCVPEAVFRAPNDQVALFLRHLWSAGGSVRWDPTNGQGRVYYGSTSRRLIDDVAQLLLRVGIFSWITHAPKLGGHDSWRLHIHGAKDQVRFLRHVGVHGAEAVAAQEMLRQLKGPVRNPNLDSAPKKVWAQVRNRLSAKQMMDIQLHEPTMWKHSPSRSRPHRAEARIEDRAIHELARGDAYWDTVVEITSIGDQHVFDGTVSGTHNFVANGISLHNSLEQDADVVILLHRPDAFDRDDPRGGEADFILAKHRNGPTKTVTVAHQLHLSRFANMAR
smiles,measurement,setting,value
COc1cc(NC(=O)c2cccs2)c(C(=O)OCC(=O)NCc2ccco2)cc1OC,IC50,Estrogen receptor,14.8 µM (active)
same,CC50,[1],> 40 µM (active)
Cc1ccc(-c2csc3nc4c5ccccc5c(NCCCN5CCOCC5)nn4c(=O)c23)cc1,CC50,[1],13.6 µM (active)
Cn1c(=O)n(-c2cccc(Cl)c2)c(=O)c2c3c(sc21)COC(C)(C)C3,AC50,[2],3.36 µM (active)
same,AC50,Cytochrome P450 1A2,14.1 µM (inconclusive)
same,AC50,[3],1.37 µM (active)
same,AC50,[4],3.65 µM (active)
same,AC50,[5],6.71 µM (active)
COc1cccc(C(=O)N2c3ccccc3Sc3ccccc32)c1,IC50,[6],6.88 µM (not active)
Cc1cccc(NS(=O)(=O)c2ccc(C(=O)N3CCN(c4ccccc4O)CC3)cc2)c1C,CC50,[1],36.6 µM (active)
NC(=O)CCn1c(C(=O)c2cc(Cl)c(N)c(Cl)c2)c2ccccc2[n+]1[O-],IC50,[7],> 20 µM (inactive)
CCOc1ccc(N2C(=O)C3C(c4ccccc4)=NN(c4ccccc4)C3C2=O)cc1 (stereo not drawn),IC50,[7],> 20 µM (inactive)
Cc1cc(C)cc(OCC(=O)NNC(=O)CN2C(=O)c3ccccc3C2=O)c1,IC50,Prothrombin,> 50 µM (not active)
CCC(C(=O)OCC(=O)Nc1ccc(SC(F)F)cc1)c1ccccc1 (stereo not drawn),IC50,Prothrombin,> 50 µM (not active)
same,EC50,[8],> 60 µM (not active)
same,EC50,[9],1.68 µM (active)
same,IC50,[6],7.17 µM (not active)
COc1ccc2cc(C(=O)N3CCCCCC3)sc(=O)c2c1OC,IC50,[6],11.1 µM (active)
CC(C)c1ccc(NC(S)=Nc2ccc3c[nH]nc3c2)cc1,IC50,Prothrombin,2.49 µM (active)
same,CC50,[10],37.9 µM (active)
N=C(NNC(=O)c1sccc1OCc1ccc(Cl)cc1Cl)c1ccccn1,EC50,[11],3.89 µM (active)
same,AC50,INS1,5.2 µM (active)
same,EC50,Streptococcus,> 150 µM (not active)
same,CC50,[1],6.31 µM (active)
C=CCn1c(SCc2c(C)noc2C)nc2cc(C(=O)O)ccc2c1=O,IC50,Prothrombin,> 50 µM (not active)
CNC[C@H](Cc1cccc2ccccc12)NC[C@H](CCSC)NCC1CCC(C(C)(C)C)CC1 (stereo partly drawn),CC50,[1],25.4 µM (active)
CCC(CC)NC(=O)COC(=O)c1ccc(OCC(=O)Nc2ccccc2OC)c(OC)c1,IC50,[6],18.5 µM (not active)
CCCc1cnc(NCCNCC(O)COc2ccc(Cl)c(Cl)c2)nc1 (stereo not drawn),CC50,[1],22.1 µM (active)
CC(C)c1onc(C(=O)Nc2cccc(Cl)c2)c1[N+](=O)[O-],IC50,[6],2.32 µM (not active)
CCc1nc2ccccc2c(C(=O)OCC(=O)C(C)(C)C)c1C,IC50,Prothrombin,> 50 µM (not active)
CC[C@H](C)[C@@H](CN[C@H](C)CNC)NCCC(c1ccccc1)c1ccccc1,IC50,[7],> 20 µM (inactive)
Cc1ccc(C(=O)O)cc1N1C(=O)c2cccc3cc(Br)cc(c23)C1=O,AC50,Cytochrome P450 2C9,15.8 µM (inconclusive)
same,IC50,[6],7.36 µM (not active)
Cn1c(N)c(C(=O)COC(=O)CCC2CCCC2)c(=O)n(C)c1=O,IC50,[6],15.5 µM (not active)
CCOC(=O)c1[nH]c(C)c(C(=O)c2ccc(C)cc2)c1C,EC50,BJ [12],3.19 µM (inconclusive)
same,EC50,BJ [13],27.4 µM (inconclusive)
same,EC50,[14],3.16 µM (active)
same,EC50,BJ [15],23.5 µM (active)
O=c1c2c(-c3ccccc3)csc2ncn1/N=C/c1ccc(O)c([N+](=O)[O-])c1,IC50,[6],9.57 µM (not active)
COc1ccccc1C(=O)n1nc(-c2ccco2)nc1N,IC50,Prothrombin,6.93 µM (active)
Nc1nc(-c2ccco2)nn1C(=O)c1ccc(Cl)cc1,EC50,Protein RecA,55.4 µM (active)
same,IC50,Prothrombin,1.46 µM (active)
same,AC50,[16],14 µM (active)
